Laboratory results published in US20200289525A1, “Methods of Increasing Microbial Diversity of a Skin Microbiota” (The Procter & Gamble Company, priority 2019, published 2020).
“Also recorded” adds a separate entry of the source. Read-outs that look alike come from different tables or passages of the source.

Assays:
skin microbiota [1] = settings: four-week wash period
Source text: Only qualified subjects with atopic dermatitis received treatment products during the treatment phase. These qualified subjects were each divided into three treatment groups. […]
Samples of microbiotas from skin with atopic dermatitis were subjected to sequence analyses to identify the various genera present on the skin and to measure relative abundances. In a first sequencing round, read lengths of 150-800 bp were obtained using the Closed OTU picking method. […] The second sequencing round yielded read lengths of 250-600 bp using the Cosed OTU picking method. […] The third sequencing round involved read lengths of 250-600 bp being obtained using the Cosed OTU picking method. […]
A study was conducted of the effect on skin microbiota of single washes or four-week wash periods of either a 0.5% zinc pyrithione body wash, a vehicle body wash, or a B7U bar soap wash. The relative abundances of 11 identified bacterial genera were monitored, along with a category of unclassified microbes. […]

skin microbiota [2] = experiment: Four-week daily wash of atopic dermatitis without lesions, 16S rDNA sequencing and qPCR (FIG. 6); assay type: in vivo, human; settings: baseline vs four weeks of daily washing, p=0.027, FDR>0.05
Protocol: A study mirroring the study described in the brief description of FIG. 5 was conducted with subjects having atopic dermatitis without lesions substituted for subjects with atopic dermatitis with lesions. The relative abundance of Staphylococcus was measured using 16S rDNA sequencing and qPCR quantification. Subjects performed the standard leg wash using B7U bar soap, vehicle only (BCP2), or zinc pyrithione in BCP2 vehicle (BCP2ZPT). Samples were taken at the onset of the study to establish a baseline and after four weeks of leg washings.
A related experiment assessing the treatment effects of a zinc ionophore on skin microbiota diversity in subjects with atopic dermatitis without lesions was performed to assess the effects of the therapeutic in this context. The experimental design involved daily body washes of subjects with atopic dermatitis lacking visible lesions over a four-week period, with subjects engaging in daily washing with either B7U bar soap, vehicle alone (BCP2 base), or BCP2ZPT (which included 0.5% zinc pyrithione). Skin samples were again analyzed for microbiota composition by 16S rDNA sequencing with qPCR to quantify the abundances of the bacterial genera in the skin microbiotas.

skin microbiota [3] = settings: skin having atopic dermatitis, in a body wash
skin microbiota [4] = settings: atopic dermatitis lesion area, baseline vs four weeks of daily washes
Protocol: The effect of zinc pyrithione body wash on skin microbiota of subjects with atopic dermatitis with lesions was assessed using a standard leg wash assay. Subjects completed a 4-week period of daily leg washes with zinc pyrithione (BCP2ZPT), a B7U bar soap, or a vehicle control (BCP2). Samples were collected at baseline (study onset) and after 4 weeks of leg washings.
Another study was conducted to specifically assess the effect of a zinc ionophore, i.e., zinc pyrithione, on the skin microbiota diversity of atopic dermatitis lesions using standard body wash protocol well-known in the art. The washes were carried out on a daily basis over a four-week period and 16S rDNA sequencing was used to identify bacterial genera while qPCR amplification was used to quantify the abundance of the genera. Measurements were taken at baseline and after the four-week wash period. Controls involved subjects washing with B7U bar soap or the BCP2 vehicle alone. […]

With `[O-]n1ccccc1=S.[O-]n1ccccc1=S.[Zn+2]` [zinc pyrithione, zinc salt of 1-hydroxy-2-pyridinethione] the “relative abundance of Staphylococcus” value (skin microbiota [1]; atopic dermatitis patients not exhibiting lesions) was “selectively reduces”, the “relative abundance of Staphylococcus” value (skin microbiota [1]; subjects with atopic dermatitis lesions) was “selectively reduces” and the “abundance of Staphylococcus” value (skin microbiota [2]) was “significantly reduced; also recorded: selective reduction”. For the same compound, the total bacterial level (skin microbiota [3]) was “lowers” and the “abundance of Kocuria” value (skin microbiota [4]) was “increased”.
